SMILES strings stand for the structures. Where only a bound is given, the exact number is not on record here.

human Plasma Kallikrein, sequence (P03952 20-638): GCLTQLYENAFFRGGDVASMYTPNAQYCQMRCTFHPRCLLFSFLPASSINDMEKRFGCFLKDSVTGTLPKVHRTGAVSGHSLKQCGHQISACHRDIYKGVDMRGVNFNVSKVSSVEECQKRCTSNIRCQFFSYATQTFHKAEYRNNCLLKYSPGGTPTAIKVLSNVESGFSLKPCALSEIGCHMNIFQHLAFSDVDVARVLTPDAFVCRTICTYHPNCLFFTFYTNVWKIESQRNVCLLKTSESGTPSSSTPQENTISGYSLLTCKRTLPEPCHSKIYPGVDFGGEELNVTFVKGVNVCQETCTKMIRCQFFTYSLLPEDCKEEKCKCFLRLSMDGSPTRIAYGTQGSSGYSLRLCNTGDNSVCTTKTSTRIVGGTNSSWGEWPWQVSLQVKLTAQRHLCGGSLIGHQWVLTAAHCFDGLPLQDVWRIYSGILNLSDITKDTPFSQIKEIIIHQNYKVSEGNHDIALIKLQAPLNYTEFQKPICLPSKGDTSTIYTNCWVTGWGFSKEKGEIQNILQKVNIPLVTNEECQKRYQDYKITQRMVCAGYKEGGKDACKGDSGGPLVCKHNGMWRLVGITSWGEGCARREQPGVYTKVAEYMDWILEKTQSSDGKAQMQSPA

One test addresses human Plasma Kallikrein (Homo sapiens (Human), UniProt P03952). Description: In vitro enzyme inhibition of human plasma kallikrein (PFR-AMC cleavage). The class given is biochemical.
Conditions: not given
Here is the method: The ability of the compounds disclosed herein to inhibit human plasma kallikrein activity was quantified according to the procedures below.
A 10 mM solution of the test compound was made in DMSO. […] A control tube containing only DMSO is included. 16 μL of each compound test solution was combined with 384 μL of assay buffer (50 mM Tris-HCl pH 7.5, 150 mM NaCl, 0.01% Triton X-100) to yield a “4× test compound buffer stock”.
These solutions are hereby referred to as 4×hPK and 2×PFR-AMC, respectively.
50 μL was removed from this mixture and placed into duplicate wells on a Microfluor 1Black U-bottom microtiter plate (Thermo Scientific). This plate was incubated for 5 minutes at 37° C. To each well, 50 μL of pre-warmed 2×PFR-AMC was added to start the enzymatic reaction. Cleavage of PFR-AMC was monitored in a Biotek Synergy H4 reader set at 37° C. Readings are taken every 43 seconds for 1 hour. […] The IC50 is calculated using the Gen5 (Biotek Instruments).
The ability of the compounds in Table 3 to inhibit human plasma kallikrein activity was determined.
In general, IC50 refers to the concentration that inhibits the measured activity by half. For the compound `Cc1cc(N)nc(C)c1CNC(=O)c1ccnc(Cn2ccc3c(Cl)cccc3c2=O)c1` [Example 22, N-(6-Amino-2,4-dimethyl-pyridin-3-ylmethyl)-2-(5-chloro-1-oxo-1H-isoquinolin-2-ylmethyl)-isonicotinamide], the IC50 lay within 0.1 to 1 µM.

Still in this test, the particulars now being: human plasma kallikrein, Pro-Phe-Arg-AMC substrate, 37° C.; read-out: hPK IC50.
`NC(=O)c1ccc2cc(Cc3cc(C(=O)NCc4cc5c(Cl)c[nH]c5cc4F)ccn3)ccc2n1` [Example 1, 6-((4-(((3-chloro-6-fluoro-1H-indol-5-yl)methyl)carbamoyl)pyridin-2-yl)methyl)quinoline-2-carboxamide]: the IC50 was in the range of 0.1 to 1 µM.
In the case of `Cc1cc(N)nc(C)c1CNC(=O)c1ccnc(Cc2ccc3nc(C(N)=O)ccc3c2)c1` [Example 2, 6-((4-(((6-amino-2,4-dimethylpyridin-3-yl)methyl)carbamoyl)pyridin-2-yl)methyl)quinoline-2-carboxamide], the IC50 was 0.1 to 1 µM.
As to `N#Cc1ccc2cc(Cc3cc(C(=O)NCc4ccc5c(N)nccc5c4)ccn3)ccc2n1` [Example 3, N-((1-aminoisoquinolin-6-yl)methyl)-2-((2-cyanoquinolin-6-yl)methyl)isonicotinamide], the IC50 is < 0.1 µM.
Take `NC(=O)c1ccc2cc(Cc3cc(C(=O)NCc4ccc5c(N)nccc5c4)ccn3)ccc2n1` [Example 4]: the IC50 was in the range of 0.1 to 1 µM.
On to `N#Cc1cnc2ccc(Cc3cc(C(=O)NCc4cc5c(Cl)c[nH]c5cc4F)ccn3)cc2c1` [Example 5, N-((3-chloro-6-fluoro-1H-indol-5-yl)methyl)-2-((3-cyanoquinolin-6-yl)methyl)isonicotinamide], for which the IC50 was < 0.1 µM.
Still for that read-out and setting: the result for `N#Cc1cnc2ccc(Cc3cc(C(=O)NCc4ccc5c(N)nccc5c4)ccn3)cc2c1` [Example 6, N-((1-aminoisoquinolin-6-yl)methyl)-2-((3-cyanoquinolin-6-yl)methyl)isonicotinamide] reads < 0.1 µM; that for `Cc1cc(N)nc(C)c1CNC(=O)c1ccnc(Cc2ccc3ncc(C#N)cc3c2)c1` [Example 7, N-((6-amino-2,4-dimethylpyridin-3-yl)methyl)-2-((3-cyanoquinolin-6-yl)methyl)isonicotinamide], < 0.1 µM.
Consider `Nc1nccc2cc(CNC(=O)c3ccnc(Cc4cnc5ccc(F)cc5n4)c3)ccc12` [Example 8, N-((1-aminoisoquinolin-6-yl)methyl)-2-((7-fluoroquinoxalin-2-yl)methyl)isonicotinamide], for which the IC50 lay within 0.1 to 1 µM.
On the same count and under the same terms, the result for `CC(=O)NCc1ccc2cc(Cc3cc(C(=O)NCc4cc5c(Cl)c[nH]c5cc4F)ccn3)ccc2n1` [Example 9, 2-[2-(acetylamino-methyl)-quinolin-6-ylmethyl]-N-(3-chloro-6-fluoro-1H-indol-5-ylmethyl)-isonicotinamide] reads 0.1 to 1 µM.
As to `CC(=O)NCc1ccc2cc(Cc3cc(C(=O)NCc4ccc5c(N)nccc5c4)ccn3)ccc2n1` [Example 10, 2-[2-(acetylamino-methyl)-quinolin-6-ylmethyl]-N-(1-amino-isoquinolin-6-ylmethyl)-isonicotinamide], the IC50 lay within 0.1 to 1 µM.
Regarding `CC(=O)NCc1ccc2cc(Cc3cc(C(=O)NCc4c(C)cc(N)nc4C)ccn3)ccc2n1` [Example 11, 2-[2-(acetylamino-methyl)-quinolin-6-ylmethyl]-N-(6-amino-2,4-dimethyl-pyridin-3-ylmethyl)-isonicotinamide], the IC50 lay in the range of 0.1 to 1 µM.
For the compound `CS(=O)(=O)c1ccc2ncc(Cc3cc(C(=O)NCc4cc5c(Cl)c[nH]c5cc4F)ccn3)cc2c1` [Example 12, N-((3-chloro-6-fluoro-1H-indol-5-yl)methyl)-2-((6-(methylsulfonyl)quinolin-3-yl)methyl)isonicotinamide], the IC50 is < 0.1 µM.
As to `CS(=O)(=O)c1ccc2ncc(Cc3cc(C(=O)NCc4ccc5c(N)nccc5c4)ccn3)cc2c1` [Example 13, N-((1-aminoisoquinolin-6-yl)methyl)-2-((6-(methylsulfonyl)quinolin-3-yl)methyl)isonicotinamide], the IC50 was in the range of 0.1 to 1 µM.
With `Cc1cc(N)nc(C)c1CNC(=O)c1ccnc(Cc2cnc3ccc(S(C)(=O)=O)cc3c2)c1` [Example 14, N-((6-amino-2,4-dimethylpyridin-3-yl)methyl)-2-((6-(methylsulfonyl)quinolin-3-yl)methyl)isonicotinamide], the IC50 lay in the range of 0.1 to 1 µM.
Still for that read-out and setting: the result for `Cc1cc(N)nc(C)c1CNC(=O)c1ccnc(Cn2ccc3cc(Cl)ccc3c2=O)c1` [Example 23, N-((6-amino-2,4-dimethylpyridin-3-yl)methyl)-2-((6-chloro-1-oxoisoquinolin-2(1H)-yl)methyl)isonicotinamide] reads 1 to 10 µM; that for `Cc1cc(N)nc(C)c1CNC(=O)c1ccnc(Cc2ccc3[nH]cc(Cl)c3c2)c1` [Example 24, N-((6-amino-2,4-dimethylpyridin-3-yl)methyl)-2-((3-chloro-1H-indol-5-yl)methyl)isonicotinamide], 0.1 to 1 µM; that for `Cc1cc(N)nc(C)c1CNC(=O)c1ccnc(Cc2ccc3[nH]cc(C)c3c2)c1` [Example 25, N-((6-amino-2,4-dimethylpyridin-3-yl)methyl)-2-((3-methyl-1H-indol-5-yl)methyl)isonicotinamide], 0.1 to 1 µM.
Turning to `Cc1nc(N)c(C#N)cc1CNC(=O)c1ccnc(Cc2ccc3ncc(Cl)cc3c2)c1` [Example 26, N-((6-amino-5-cyano-2-methylpyridin-3-yl)methyl)-2-((3-chloroquinolin-6-yl)methyl)isonicotinamide], the IC50 lay in the range of 1 to 10 µM.
Turning to `Cc1nc(N)c(C(N)=O)cc1CNC(=O)c1ccnc(Cc2ccc3ncc(Cl)cc3c2)c1` [Example 27, 2-amino-5-((2-((3-chloroquinolin-6-yl)methyl)isonicotinamido)methyl)-6-methylnicotinamide], the IC50 was > 10 µM.
As to `Cc1nc(N)c(Cl)cc1CNC(=O)c1ccnc(Cc2ccc3ncc(Cl)cc3c2)c1` [Example 28, N-((6-amino-5-chloro-2-methylpyridin-3-yl)methyl)-2-((3-chloroquinolin-6-yl)methyl)isonicotinamide], the IC50 fell in the range of 1 to 10 µM.
`Cc1cc(N)ncc1CNC(=O)c1ccnc(Cc2ccc3ncc(Cl)cc3c2)c1` [Example 29, N-((6-amino-4-methylpyridin-3-yl)methyl)-2-((3-chloroquinolin-6-yl)methyl)isonicotinamide]: the IC50 is < 0.1 µM.
Take `Nc1ccc(CNC(=O)c2ccnc(Cc3ccc4ncc(Cl)cc4c3)c2)c(C(F)(F)F)n1` [Example 30, N-((6-amino-2-(trifluoromethyl)pyridin-3-yl)methyl)-2-((3-chloroquinolin-6-yl)methyl)isonicotinamide]: the IC50 was > 10 µM.
With `O=C(NCc1cc2cn[nH]c2cc1F)c1ccnc(Cc2ccc3ncc(Cl)cc3c2)c1` [Example 32, 2-(3-chloro-quinolin-6-ylmethyl)-N-(6-fluoro-1H-indazol-5-ylmethyl)-isonicotinamide], the IC50 is 1 to 10 µM.
Take `Nc1noc2cc(CNC(=O)c3ccnc(Cc4ccc5ncc(Cl)cc5c4)c3)ccc12` [Example 36, N-((3-aminobenzo[d]isoxazol-6-yl)methyl)-2-((3-chloroquinolin-6-yl)methyl)isonicotinamide]: the IC50 was 1 to 10 µM.
On to `O=C(NCc1n[nH]c2ccc(Cl)cc12)c1ccnc(Cc2ccc3ncc(Cl)cc3c2)c1` [Example 37, N-(5-chloro-1H-indazol-3-ylmethyl)-2-(3-chloro-quinolin-6-ylmethyl)-isonicotinamide], for which the IC50 was < 0.1 µM.
Regarding `O=C(NCc1cc2cc[nH]c2cc1F)c1ccnc(Cc2ccc3ncc(Cl)cc3c2)c1` [Example 41, 2-(3-chloro-quinolin-6-ylmethyl)-N-(6-fluoro-1H-indol-5-ylmethyl)-isonicotinamide], the IC50 is < 0.1 µM.
Turning to `CNc1ccc(CNC(=O)c2ccnc(Cc3ccc4ncc(Cl)cc4c3)c2)c(C)n1` [Example 42, 2-((3-chloroquinolin-6-yl)methyl)-N-((2-methyl-6-(methylamino)pyridin-3-yl)methyl)isonicotinamide], the IC50 is 0.1 to 1 µM.
Regarding `Nc1ccc(CNC(=O)c2ccnc(Cc3ccc4ncc(Cl)cc4c3)c2)c(C2CC2)n1` [Example 43, N-((6-amino-2-cyclopropylpyridin-3-yl)methyl)-2-((3-chloroquinolin-6-yl)methyl)isonicotinamide], the IC50 lay in the range of 0.1 to 1 µM.
On the same count and under the same terms, to `Cc1nc(N(C)C)ccc1CNC(=O)c1ccnc(Cc2ccc3ncc(Cl)cc3c2)c1` [Example 44, 2-((3-chloroquinolin-6-yl)methyl)-N-((6-(dimethylamino)-2-methylpyridin-3-yl)methyl)isonicotinamide] belongs > 10 µM; to `NCc1ccc2cc(Cc3cc(C(=O)NCc4cc5c(Cl)c[nH]c5cc4F)ccn3)ccc2n1` [Example 45, 2-((2-(aminomethyl)quinolin-6-yl)methyl)-N-((3-chloro-6-fluoro-1H-indol-5-yl)methyl)isonicotinamide], 0.1 to 1 µM.
On the same count and under the same terms, to `Cc1cc(N)nc(C)c1CNC(=O)c1ccnc(Cc2ccc3nc(CN)ccc3c2)c1` [Example 46, N-((6-amino-2,4-dimethylpyridin-3-yl)methyl)-2-((2-(aminomethyl)quinolin-6-yl)methyl)isonicotinamide] belongs < 0.1 µM.
As to `Cc1cnc2ccc(Cc3cc(C(=O)NCc4ccc5c(N)noc5c4)ccn3)cc2c1` [Example 47, N-((3-aminobenzo[d]isoxazol-6-yl)methyl)-2-((3-methylquinolin-6-yl)methyl)isonicotinamide], the IC50 lay within 1 to 10 µM.
